Results taken from US8138191B2, “Inhibitor compounds and cancer treatment methods” (Critical Outcome Technologies Inc., priority 2007, dated 2012).
Read-outs that look alike come from different tables or passages of the source.

Tests used:
[1] = system: PI3K activity in SHP77 cells; experiment: PI3-K activity (PIP3 detection, Echelon kit), SHP77; assay type: cell-based, human; settings: SHP77, 250 nM COTI-2 alone, 20 minutes
Description: As a negative control, an equivalent volume of DMSO was utilized. […] To measure PI3-K activity, a commercial kit was purchased from Echelon. Following the procedures recommended by the manufacturer, membrane lipids were extracted in several steps and the resulting PIP3 was immobilized to nitrocellulose and measured by its interaction with a PH-domain containing protein and HRP-conjugated antibody supplied with the kit. As an additional control in these experiments, the specific PI3-K inhibitor, LY294002 was used to inhibit PI3-K and thus stop PIP3 production.

MCF-7 cells = experiment: Sensitivity to COTI-2 after PTEN siRNA knockdown (alamar Blue), MCF-7; assay type: cell-based, human; settings: MCF-7, 48 h post-transfection
Description: Briefly, HeLa and MCF-7 cells were transfected with 100 nM PTEN siRNA or control non-targeted siRNA at 48 or 144 h prior to exposure to various concentrations of COTI-2.
To assess the capacity of transient siRNA transfection to alter the ability of cells to proliferate in the presence or absence of COTI-2, HeLa or MCF-7 cells (both PTEN-positive) were plated in T25 flasks and transfected 24 h later with PTEN siRNA or non-targeting control siRNA (100 nM in both cases), using Oligofectamine Reagent (Invitrogen) according to the manufacturer's instructions and as previously described (J Pharmacol Exp Ther, 322:123-132). […] PTEN and 18S rRNA mRNA levels were determined by semi-quantitative reverse transcription PCR. […]
For determination of drug sensitivity, HeLa and MCF-7 cells (transfected with PTEN siRNA or control, non-targeted siRNA 48 or 144 hours prior) were re-plated in 96-well plates (VWR, Mississauga, ON, Canada) at 1700 (MCF-7) and 1200 (HeLa) cells per well in a volume of 100 μl of DMEM+10% FBS. […] Cells were then grown for 4 days, and viable cell numbers were assessed by the alamar Blue fluorescence assay using a Wallac Victor^2 multilabel counter (PerkinElmer Wallac, Gaithersburg, Md.). […]

in vitro = settings: human
Description: (§1) TC7 cells were seeded at 1×10^5 cells/cm^2 on porous polycarbonate membrane in 96-well Multiscreen™ plates (Millipore). Cells were fed every 2 to 3 days and the day before the permeability assay. Permeability assays are performed with the cells at days 13-25 post-seeding. The assay directions included apical to basolateral (A-B) and basolateral to apical (B-A). The working solution for COTI-2 was prepared at 10 μM in HBSS-MES (5 mM), pH 6.5, or HBSS-HEPES (5 mM), pH 7.4, from a 1 mM DMSO stock solution. The working solution was then centrifuged and the supernatant was added to the apical or basolateral side with a final DMSO concentration of 1%. The assay was incubated for 60 or 40 min with gentle shaking at 37° C. The sampling scheme consisted of donor time zero, donor time 60 or 40 min, and receiver time 60 or 40 min. Samples were analyzed via (RP)HPLC-MS/MS using selected reaction monitoring (SRM). […] The cell monolayer integrity was confirmed by fluorescein permeability assessment (in the A-B direction at pH 7.4 on both sides with 1 h incubation) after the permeability assay with COTI-2. The cell monolayer that has a fluorescein permeability of less than 0.5×10^−6 cm/s was considered intact. The apparent permeability coefficient (Papp) of COTI-2 in the […] and the percent recovery of the compounds were calculated.

[2] = system: TC7 (human intestinal epithelial cells); experiment: in vitro
Description: as §1

[3] = system: AN3-CA human endometrial tumor xenograft; settings: for Maximum weight loss (%) (Day #): Day 21; for CS (Complete Shrinkage) / Deaths: N 10; for Mean days of Survival (Day ± SEM): end point of 2000 mg
Description: Female athymic nude mice (CrTac:NCR-Foxn1^nu) were supplied by Taconic (Germantown, N.Y.).
The dosing schedule for COTI-2 and the vehicle control was three times weekly until study end. […] When the mean tumor weight of each mouse reached an approximate end-point of 2000 mg, mice were sacrificed with regulated CO2.
The mean tumor shrinkage of each group was calculated and reported.

CYP3A = CYP3A (Homo sapiens, UniProt P08684); experiment: in vitro; settings: both
CYP3A, sequence (P08684 2-503): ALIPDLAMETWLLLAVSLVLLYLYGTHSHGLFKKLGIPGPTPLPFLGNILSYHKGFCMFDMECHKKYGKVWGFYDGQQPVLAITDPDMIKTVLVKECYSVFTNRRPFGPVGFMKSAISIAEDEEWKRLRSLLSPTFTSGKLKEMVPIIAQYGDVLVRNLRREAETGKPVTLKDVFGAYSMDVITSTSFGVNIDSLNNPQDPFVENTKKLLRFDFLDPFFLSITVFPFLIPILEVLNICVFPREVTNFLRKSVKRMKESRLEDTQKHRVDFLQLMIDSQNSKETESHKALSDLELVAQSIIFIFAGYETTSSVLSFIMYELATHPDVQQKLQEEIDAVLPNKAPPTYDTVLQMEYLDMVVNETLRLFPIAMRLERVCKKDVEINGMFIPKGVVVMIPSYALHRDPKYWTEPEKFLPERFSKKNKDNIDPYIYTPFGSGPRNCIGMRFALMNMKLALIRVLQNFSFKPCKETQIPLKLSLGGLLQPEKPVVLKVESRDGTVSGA

[4] = system: Akt kinase activity in DMS-114 cells; experiment: Akt kinase activity (immunoprecipitated Akt, GSK-3 phosphorylation), DMS-114; settings: DMS-114, 250 nM, 8 hrs
[5] = Caco-2, pH 7.4, Permeability Mean
[6] = COTI-2 12.5 mg/kg IV 3X Weekly to end
[7] = COTI-2 50.0 mg/kg IV 3X Weekly to end

SMILES: S=C(N/N=C1/CCCc2cccnc21)N1CCN(c2ccccn2)CC1 [COTI-2]
- PI3K activity (PIP3 levels) [1]: did not inhibit PI3K activity
- resistance to COTI-2 after PTEN siRNA transfection (MCF-7 cells): significant increase in the resistance
- efflux ratio at 10 µM (in vitro; Caco-2): ~4.5
- Papp A→B at 10 µM (in vitro; Caco-2, A-B permeability (Papp)): < 0.3 ×10⁻⁶ cm/s
- recovery at 10 µM (in vitro; Caco-2, mean recovery): 22%
- Papp A→B at 10 µM (in vitro; [5]): < 0.3 ×10⁻⁶ cm/s
- Papp B→A at 10 µM (in vitro; [5]): 1.4 ×10⁻⁶ cm/s
- Pgp substrate assessment ([2]; Caco-2): not a substrate of Pgp
- Flags ([2]; Caco-2, pH 7.4): BLQ
- Day 13 Mean tumor weight [3, 6]: 1,828.9 ± 265.8 mg
- Maximum weight loss (%) (Day #) [3, 6]: 8.2% (Day 21)
- CS (Complete Shrinkage) [3, 6]: 0
- Deaths [3, 6]: 0
- Mean days of Survival (Day ± SEM) [3, 6]: 16.7 ± 0.8 days
- Day 13 Mean tumor weight [3, 7]: 1,542.7 ± 217.2 mg
- Day 13 TGI [3, 7]: 7.8%
- Maximum weight loss (%) (Day #) [3, 7]: 5.4% (Day 21)
- CS (Complete Shrinkage) [3, 7]: 0
- Deaths [3, 7]: 1
- Mean days of Survival (Day ± SEM) [3, 7]: 17.2 ± 0.7 days
- Mean days of Survival (Day ± SEM) ([3]; COTI-2 […] IV 3X Weekly to end): 15.8 ± 0.9 days
- toxicity observations ([3]; mouse, in vivo, 50 mg/kg): lethargy and hypoactivity
- tumor weights or survival compared to control ([3]; single agent, IV three times weekly): did not show any statistical differences in tumor weights or survival
- inhibition at 15 min, 10 µM (CYP3A; human liver microsomes, pH 7.4, probe midazolam (10 µM)): 7%
- inhibition at 15 min, 10 µM (CYP3A; liver microsomes, pH 7.4, probe midazolam): < 50%
- Akt kinase activity [4]: below the threshold for measurement
